System: cTnI-G203S cardiac myocytes
Assay: Calcium transients in Fura-2 loaded myocytes
Assay type: cell-based, mouse
Settings: in vitro 1 μM peptide
Protocol: The whole-cell configuration of the patch-clamp technique was used to measure changes in ICa-L currents ([13]), and stimulate calcium transients in intact ventricular myocytes. Detailed methods are provided in SI Appendix.
Supporting Materials and Methods
Isolation of ventricular myocytes
Myocytes were isolated from wt and cTnI-G203S mice. Animals were anesthetized with pentobarbitone sodium (240 mg/kg) via intraperitoneal injection prior to excision of the heart. Cells were isolated as previously described (1-3). Mouse hearts were excised, cannulated onto a Langendorff apparatus via the aorta, and perfused with Krebs-Henseleit Buffer (KHB) containing […]
O2/CO2 at 37°C) for 4 min at 37°C. […]
The whole-cell configuration of the patch-clamp technique was used to measure changes in ICa-L currents (4), and stimulate calcium transients in intact ventricular myocytes. […] Currents were measured in extracellular modified Tyrode’s solution containing (in mM): NaCl 140, CsCl 5.4, CaCl2 2.5, MgCl2 0.5, HEPES 5.5 and glucose 11 (pH adjusted to 7.6 with NaOH). Macroscopic currents were recorded using an Axopatch 200B voltage-clamp amplifier (Molecular Devices) with a Digidata 1440A interface and pClamp10.5 software (Molecular Devices). […] The time course of changes in Ca2+ conductance were monitored by applying a 100 ms test pulse to 10 mV once every 10 seconds. […]

With QQLEEDLKGYLDWITQAE [AID-TAT] the “cellular calcium handling (calcium transients, Fura-2)” value was “no significant alteration”.

From PMC7502707, “Characterization and validation of a preventative therapy for hypertrophic cardiomyopathy in a murine model of the disease” (Proceedings of the National Academy of Sciences of the …, 2020)
